Like-named read-outs stand apart in the source and are kept apart here.
Tests used:
[1] = tested on: methicillin resistant Staphylococcus aureus (MRSA 40065); type: cell-based; conditions: [Cl+] 15 ppm, inoculum 10^6 cfu/ml
Protocol: (§1) Pseudomonas aeruginosa (P. aeruginosa) (#73104, Gram-negative) and Staphylococcus aureus (MRSA) (#40065, Gram-positive) were used as the model microorganism to challenge the antibacterial function of the compounds. It should be noticed that both P. aeruginosa and MRSA are biosafety level 2 microorganisms and potentially biohazardous, therefore the following antibacterial assessments were carried out in a Biological Safety Level 2 cabinet and safety precautions were strictly followed.
(§2) Tryptone Soya agar plates were used as platforms for bacterial cell growth and were prepared following the instructions on the bottle (CM 0131, OXOID). The prepared agar was kept at 65° C. after being autoclaved and the resulting agar plates were stored in fridge at 3-4° C. All glassware and related materials were subjected to autoclave or disinfection with 70% ethanol prior to use.
(§3) Several colonies of each bacteria type were suspended in broth solutions (cation-supplemented Mueller-Hinton broth for P. aeruginosa and tryptic soy broth for MRSA) whose concentrations were equivalent to a 0.5 McFarland standard (1×10^8 cfu/ml). This suspension was then diluted 1:100 and 20 μL of the diluted suspension was further diluted in 60 ml of cation-supplemented Mueller-Hinton broth or tryptic soy broth. Then the prepared bacteria inoculums were incubated overnight at 37° C. to obtain logarithmic-phase cultures. For each microbial study, 0.2 ml (0.02 ml for P. aeruginosa) of the cell suspension was diluted in 19.8 mL (19.98 ml for P. aeruginosa) of phosphate-buffered Saline (PBS, 0.1 M Sodium phosphate monobasic, 0.1 M Sodium phosphate dibasic, pH 7.4) to give a cell concentration of 10^6-10^7 cfu/mL (10^5 cfu/ml for P. aeruginosa). 30 μL of each synthesized compound solution (0.28 N stock solution) were added into the cell suspension to achieve a [Cl^+] of 15 ppm and start timing instantly. The mixture was vortexed several times during the reaction. After contact for the desired time intervals, 1.0 ml cell suspension was withdrawn and added to 1.0 ml of 0.02 N sodium thiosulfate and/or Letheen (1% lecithin, 10% peptone and 0.5% tween 80 dissolved in PBS at pH 7.4) to quench the bactericidal effect. The quenched suspension was then serially diluted (10 times less concentrated than the previous one) and 100 μL of each dilution was placed onto agar plates. The same procedure was applied to the blanks as controls with the same matrices but with no synthesized compounds added. Bacterial colonies on the agar plates were enumerated after being incubated at 37° C. for 22 hours.
(§4) Percentage reduction of bacteria (%)=(A−B)/A×100
(§5) Where A is the number of bacterial colonies in the control (cfu/mL), and B is the number of bacteria colonies under the effect of the synthesized compounds.

P. aeruginosa (73104) = assay: Antibacterial assessment in PBS suspension (Example 19); type: cell-based, Pseudomonas aeruginosa; conditions: [Cl+] 15 ppm, inoculum 10^5 cfu/ml
Protocol: as §1, §2, §3, §4, §5

Row | SMILES | Bacteria Reduction log10 ([1]; Table 10, contact 1 min) [log10] | Bacteria reduction % ([1]; Table 10, contact 1 min) [%] | Bacteria Reduction log10 ([1]; Table 10, contact 3 min) [log10] | Bacteria reduction % ([1]; Table 10, contact 3 min) [%] | Bacteria Reduction log10 ([1]; Table 10, contact 5 min) [log10] | Bacteria reduction % ([1]; Table 10, contact 5 min) | Bacteria Reduction log10 ([1]; Table 10, contact 10 min) [log10] | Bacteria reduction % ([1]; Table 10, contact 10 min) [%] | Bacteria Reduction log10 ([1]; Table 10, contact 60 min) [log10] | Bacteria reduction % ([1]; Table 10, contact 60 min) [%] | Bacteria Reduction log10 (P. aeruginosa (73104); Table 10, contact 3 min) [log10] | Bacteria reduction % (P. aeruginosa (73104); Table 10, contact 3 min) [%] | Bacteria Reduction log10 (P. aeruginosa (73104); Table 10, contact 10 min) [log10] | Bacteria reduction % (P. aeruginosa (73104); Table 10, contact 10 min) [%] | Bacteria Reduction log10 (P. aeruginosa (73104); Table 10, contact 20 min) [log10] | Bacteria reduction % (P. aeruginosa (73104); Table 10, contact 20 min) [%] | Bacteria Reduction log10 (P. aeruginosa (73104); Table 10, contact 30 min) [log10] | Bacteria reduction % (P. aeruginosa (73104); Table 10, contact 30 min) [%] | Bacteria Reduction log10 (P. aeruginosa (73104); Table 10, contact 60 min) [log10] | Bacteria reduction % (P. aeruginosa (73104); Table 10, contact 60 min) [%]
1 | CCCCCC[N+](C)(C)CCCN1C(=O)N(Cl)C(C)(C)C1=O.[Cl-] [Compound 6] | 0.66 | 78.3 | 0.67 | 78.9 | 0.76 | 82.8% | 1.00 | 89.3 | 2.11 | 99.2 | 0.24 | 42.7 | 0.30 | 49.3 | 0.50 | 68.6 | 1.52 | 97.0 | 5.80 | 100
2 | CCCCCCCCCCCC[N+](C)(C)CCCN1C(=O)NC(C)(C)C1=O [Compound 7] | 0 | 0 | 0 | 0 | 0.85 | 85.6. % | 2.59 | 99.7 | 6.26 | 100 | 5.80 | 100 | 5.80 | 100 | 5.80 | 100 | 5.80 | 100 | 5.80 | 100
3 | CCCCCCCCCCCC[N+](C)(C)CCCN1C(=O)N(Cl)C(C)(C)C1=O.[Cl-] [Compound 8] | 0.13 | 26.1 | 6.26 | 100 | 6.26 | 100% | 6.26 | 100 | 6.26 | 100 | 5.80 | 100 | 5.80 | 100 | 5.80 | 100 | 5.80 | 21.4 | 5.80 | 100
4 | CC1(C)C(=O)N(CC[N+](C)(C)C)C(=O)N1Cl.[Cl-] [Compound 10] | 0.74 | 81.7 | 0.63 | 76.7 | 0.50 | 68.2% | 0.81 | 84.5 | 1.33 | 95.3 | – | – | 0.35 | 55.1 | 5.27 | 100 | 5.27 | 100 | 5.27 | 100

Source: patent US20150118179A1, “BIOCIDAL COMPOUNDS AND METHODS FOR USING SAME” (UNIVERSITY OF MANITOBA, priority 2012, published 2015)
